{"source": "patent US6537592B2", "about": "“Extracts of kava-kava” (Kava Pharmaceuticals, Inc., priority 2000, dated 2003)", "origin": "cited, not measured here", "conditions": "at 21° C., water"}
{"smiles": "COC1=CC(=O)O[C@@H](/C=C/c2ccccc2)C1", "note": "[kawain]", "values": [{"measurement": "maximum solubility", "result": "about 2.2 mg/100 ml water"}]}
